Earlier results, collected in US10392669B2, “Methods and systems for determination of an effective therapeutic regimen and drug discovery” (DNA-SEQ, INC., priority 2014, dated 2019).
Entries after “also recorded” stand apart in the source; their conditions may differ.

Columns and labels:
[1] = tested on: catalytic cores of kinases; details: cancer patients, bracketed literature reference; for Activating Mutations: known activating mutations within the kinase catalytic core listed for the drug; for Resistant Mutations: known resistance mutations within the kinase catalytic core listed for the drug
ERBB2 T798I = ERBB2 T798I (Homo sapiens, UniProt P04626, T798I); details: Gene ERBB2, Mutation T798I; full finding: Not reported to be in a before/after study, but does cause drug resistance
kinase DFG motif = details: crystal structure library

## C[C@@H](Oc1cc(-c2cnn(C3CCNCC3)c2)cnc1N)c1c(Cl)ccc(F)c1Cl [Crizotinib]
[1]
  Activating Mutations: ALK: I117IN, R1275Q [10]

## Cc1ccc(NC(=O)c2ccc(CN3CCN(C)CC3)cc2)cc1Nc1nccc(-c2cccnc2)n1 [Imatinib]
[1]
  Resistant Mutations: KIT: T670I; also recorded: ABL: T315I [17]

## O=C(c1ccc(F)c(F)c1Nc1ccc(I)cc1F)N1CC(O)([C@@H]2CCCCN2)C1 [Cobimetinib]
[1]
  Activating Mutations: Braf: V600 mutation [9]

## C#Cc1cccc(Nc2ncnc3cc(OCCOC)c(OCCOC)cc23)c1 [Erlotinib]
[1]
  Activating Mutations: EGFR: L858R [12]

## CS(=O)(=O)CCNCc1ccc(-c2ccc3ncnc(Nc4ccc(OCc5cccc(F)c5)c(Cl)c4)c3c2)o1 [Lapatinib]
[1]
  Resistant Mutations: HER2: L755S [18]
ERBB2 T798I
  Finding: Not reported to be in a before/after

## COc1cc2ncnc(Nc3ccc(F)c(Cl)c3)c2cc1OCCCN1CCOCC1 [Gefitinib]
[1]
  Activating Mutations: EGFR: L858R, L861Q [14]

## Cc1cn(-c2cc(NC(=O)c3ccc(C)c(Nc4nccc(-c5cccnc5)n4)c3)cc(C(F)(F)F)c2)cn1 [Nilotinib]
Kinase DFG motif
  DFG conformation bound: binds the DFG out conformation
[1]
  Activating Mutations: BCR/ABL: F317L [3]

## C=CC(=O)Nc1cc(Nc2nccc(-c3cn(C)c4ccccc34)n2)c(OC)cc1N(C)CCN(C)C [Osimertinib]
[1]
  Activating Mutations: EGFR: T790M [20]

## COc1cc2nccc(Oc3ccc(NC(=O)NC4CC4)c(Cl)c3)c2cc1C(N)=O [Lenvatinib]
[1]
  Activating Mutations: RET: C634W, M918T [19]

## CNC(=O)c1cc(Oc2ccc(NC(=O)Nc3ccc(Cl)c(C(F)(F)F)c3)cc2)ccn1 [Sorafenib]
[1]
  Activating Mutations: PDGFRA: T674I [26]
  Resistant Mutations: FIP1LI-PDGFRA: D842V
